Molecules are shown by their SMILES.

The experiment has as its system immortalized human sebaceous cell line SZ95. The experiment in a line: Inhibition of DNA synthesis (3[H]-thymidine incorporation) of SZ95 sebaceous cells. It is filed as cell-based. Particulars: 48 h incubation with inhibitor, then 6 h 3[H]-methyl-thymidine incorporation; dose-dependent (FIG. 3). The protocol:
SZ95 cells were 48 h incubated with the above-mentioned inhibitors and subsequently the DNA synthesis was determined by the measurement of the ^ 3[H]-Thymidine incorporation as described in Reinhold et al. (Reinhold, D. et al.: Inhibitors of dipeptidyl peptidase IV induce secretion of transforming growth factor β1 in PWM-stimulated PBMNC and T-cells; Immunology, 1997, 91; 354-360).
The cells were 48 h incubated with inhibitors in the above-mentioned concentrations. Subsequently ^3[H]-Methyl-thymidin was added to the culture medium. After 6 further hours the amount of ^3[H]-Thymidine incorporated in the DNA was measured.
In general terms: Dividing cells build labelled thymidine or BrdU into new DNA.

Regarding `N[C@@H](CCCCNC(=O)OCc1ccc([N+](=O)[O-])cc1)C(=O)N1CCSC1` [Lys[Z(NO2)]-thiazolidide], the “DNA synthesis of the immortalized human sebaceous cell line SZ95” value is given as “inhibited”. With `CCCCC[C@H](CC(=O)NO)C(=O)N[C@H](C(=O)N1CCC[C@H]1CO)C(C)C` [actinonin] the entry was “inhibited”.

(Values after US7683034B2, “Use of enzyme inhibitors of aminopeptidase N and/or dipeptidylpeptidase IV” (IMTM GmbH, priority 2002, dated 2010).)
